Results as given in patent US10336735B2, “Small molecule inhibitors of fibrosis” (THE CALIFORNIA INSTITUTE FOR BIOMEDICAL RESEARCH, priority 2014, dated 2019).

System: primary human lung fibroblasts and primary rodent HSCs
Assay: High content imaging assay (α-SMA staining, cell morphology) of fibroblast to myofibroblast transdifferentiation, confirmed by Western blot and RT-PCR
Settings: Homo sapiens, Fibroblast; imaging and western based activity
Source text: High content imaging assays have been established, using primary human lung fibroblasts and primary rodent HSCs, that enable the identification of small molecules that either inhibit myofibroblast formation/activation or induce the reversion of activated myofibroblasts to a quiescent fibroblast state. Conditions, involving serum starvation and subsequent TGF-β treatment, have been identified that facilitate robust in vitro transdifferentiation in a miniaturized (384 well plate) format that is amenable to high throughput small molecule screening. The inhibition assay is based on α-SMA immunofluorescent staining and cell morphology changes associated with fibroblast to myofibroblast transdifferentiation, Using the selective ALK-5 TGF-β1 receptor inhibitor ([…]) as a positive control, the inhibition assay has been used to initiate a screen of a collection of ˜100,000 small molecules that consists of bioactive small molecules and a diversity set that has been assembled based on 2D and 3D structural diversity and inherent “drug-likeness” properties. Preliminary screening led to the identification of multiple previously identified anti-fibrotic molecules.
A high content imaging assay, based on α-SMA staining and cell morphological changes associated with fibroblast to myofibroblast transdifferentiation, was established using primary human lung fibroblasts and primary rodent HSCs. Conditions, involving serum starvation and subsequent TGF-β treatment, were identified that facilitate robust in vitro transdifferentiation in a miniaturized (384 well plate) format that is amenable to high throughput small molecule screening. A selective ALK-5 TGF-β1 receptor inhibitor (SB-431542) was used as a positive control. […] This assay was used to evaluate compounds of Formula (I), (Ia), (II), (IIa), (III), (IIIa), (IV), (IVa), (IVb), (V), (Va), (VI), (VIa), (VIb), (VIc), (VII), (VIIa), (VIII), (VIIIa), (IX), (IXa), (X), or (Xa) generated from medicinal chemistry efforts.
The activity of Itraconazole and compounds of Formula (I), (Ia), (II), (IIa), (III), (IIIa), (IV), (IVa), (IVb), (V), (Va), (VI), (VIa), (VIb), (VIc), (VII), (VIIa), (VIII), (VIIIa), (IX), (IXa), (X), or (Xa) was confirmed by analyzing changes in gene expression of multiple genes associated with fibroblast to myofibroblast transdifferentiation using biochemical methods (i.e., Western blot and RT-PCR). These 4-day assays were used to evaluate sets of 6 compounds at a time in 4-point dose response fashion.
The EC50 for (imaging and western based) activity is graded as: +++=<500 nM; ++=500 nM to 5 μM; +=5 to 30 μM); −=>30 μM; NT=Not Tested.

Compound	EC50 [nM]
CCC(C)n1ncn(-c2ccc(N3CCN(c4ccc(OC[C@@H]5CO[C@@](Cn6cccn6)(c6ccccc6C)O5)cc4)CC3)cc2)c1=O (some centres unmarked) [Compound 95]	< 500
CCC(C)n1ncn(-c2ccc(N3CCN(c4ccc(OC[C@@H]5CO[C@@](Cn6cccn6)(c6cccc(C)c6)O5)cc4)CC3)cc2)c1=O (some centres unmarked) [Compound 96]	< 500
CCC(C)n1ncn(-c2ccc(N3CCN(c4ccc(OC[C@@H]5CO[C@@](Cn6cccn6)(c6ccc(C)cc6)O5)cc4)CC3)cc2)c1=O (some centres unmarked) [Compound 97]	5000 to 30000
CCC(C)n1ncn(-c2ccc(N3CCN(c4ccc(OC[C@@H]5CO[C@@](Cn6cccn6)(c6ccc(S(C)(=O)=O)cc6)O5)cc4)CC3)cc2)c1=O (some centres unmarked) [Compound 98]	500 to 5000
CCC(C)n1ncn(-c2ccc(N3CCN(c4ccc(OC[C@@H]5CO[C@@](Cn6cccn6)(c6ccc(S(N)(=O)=O)cc6)O5)cc4)CC3)cc2)c1=O (some centres unmarked) [Compound 99]	5000 to 30000
CCC(C)n1ncn(-c2ccc(N3CCN(c4ccc(OC[C@@H]5CO[C@@](Cn6cccn6)(c6ccc(C(N)=O)cc6)O5)cc4)CC3)cc2)c1=O (some centres unmarked) [Compound 100]	500 to 5000
CCC(C)n1ncn(-c2ccc(N3CCN(c4ccc(OC[C@@H]5CO[C@@](Cn6cccn6)(c6ccccc6C(N)=O)O5)cc4)CC3)cc2)c1=O (some centres unmarked) [Compound 101]	5000 to 30000
CCC(C)n1ncn(-c2ccc(N3CCN(c4ccc(OC[C@@H]5CO[C@](Cc6ccnnc6)(c6ccc(Cl)cc6)O5)cc4)CC3)cc2)c1=O (some centres unmarked) [Compound 103]	500 to 5000
CCC(C)n1ncn(-c2ccc(N3CCN(c4ccc(OC[C@@H]5CO[C@](Cc6ccnnc6)(c6cccc(Cl)c6)O5)cc4)CC3)cc2)c1=O (some centres unmarked) [Compound 104]	500 to 5000
CCC(C)n1ncn(-c2ccc(N3CCN(c4ccc(OC[C@@H]5CO[C@](Cc6ccnnc6)(c6ccccc6Cl)O5)cc4)CC3)cc2)c1=O (some centres unmarked) [Compound 105]	< 500
CCC(C)n1ncn(-c2ccc(N3CCN(c4ccc(OC[C@@H]5CO[C@](Cc6ccnnc6)(c6ccc(Cl)c(Cl)c6)O5)cc4)CC3)cc2)c1=O (some centres unmarked) [Compound 106]	< 500
CCC(C)n1ncn(-c2ccc(N3CCN(c4ccc(OC[C@@H]5CO[C@](Cc6ccnnc6)(c6ccccc6OC)O5)cc4)CC3)cc2)c1=O (some centres unmarked) [Compound 107]	500 to 5000
CCC(C)n1ncn(-c2ccc(N3CCN(c4ccc(OC[C@@H]5CO[C@](Cc6ccnnc6)(c6cccc(OC)c6)O5)cc4)CC3)cc2)c1=O (some centres unmarked) [Compound 108]	500 to 5000
CCC(C)n1ncn(-c2ccc(N3CCN(c4ccc(OC[C@@H]5CO[C@](Cc6ccnnc6)(c6ccc(OC)cc6)O5)cc4)CC3)cc2)c1=O (some centres unmarked) [Compound 109]	500 to 5000
CCC(C)n1ncn(-c2ccc(N3CCN(c4ccc(OC[C@@H]5CO[C@](Cc6ccnnc6)(c6cccc(C#N)c6)O5)cc4)CC3)cc2)c1=O (some centres unmarked) [Compound 110]	5000 to 30000
CCC(C)n1ncn(-c2ccc(N3CCN(c4ccc(OC[C@@H]5CO[C@](Cc6ccnnc6)(c6ccc(C#N)cc6)O5)cc4)CC3)cc2)c1=O (some centres unmarked) [Compound 111]	5000 to 30000
CCC(C)n1ncn(-c2ccc(N3CCN(c4ccc(OC[C@@H]5CO[C@](Cc6ccnnc6)(c6ccccc6C(F)(F)F)O5)cc4)CC3)cc2)c1=O (some centres unmarked) [Compound 112]	500 to 5000
CCC(C)n1ncn(-c2ccc(N3CCN(c4ccc(OC[C@@H]5CO[C@](Cc6ccnnc6)(c6cccc(C(F)(F)F)c6)O5)cc4)CC3)cc2)c1=O (some centres unmarked) [Compound 113]	500 to 5000
CCC(C)n1ncn(-c2ccc(N3CCN(c4ccc(OC[C@@H]5CO[C@](Cc6ccnnc6)(c6ccc(C(F)(F)F)cc6)O5)cc4)CC3)cc2)c1=O (some centres unmarked) [Compound 114]	< 500
CCC(C)n1ncn(-c2ccc(N3CCN(c4ccc(OC[C@@H]5CO[C@](Cc6ccnnc6)(c6ccc(OC(F)(F)F)cc6)O5)cc4)CC3)cc2)c1=O (some centres unmarked) [Compound 115]	500 to 5000
CCC(C)n1ncn(-c2ccc(N3CCN(c4ccc(OC[C@@H]5CO[C@](Cc6ccnnc6)(c6ccccc6C)O5)cc4)CC3)cc2)c1=O (some centres unmarked) [Compound 116]	< 500
CCC(C)n1ncn(-c2ccc(N3CCN(c4ccc(OC[C@@H]5CO[C@](Cc6ccnnc6)(c6cccc(C)c6)O5)cc4)CC3)cc2)c1=O (some centres unmarked) [Compound 117]	500 to 5000

Compound	EC50 [nM]
CCC(C)n1ncn(-c2ccc(N3CCN(c4ccc(OC[C@@H]5CO[C@](Cc6ccnnc6)(c6ccc(C)cc6)O5)cc4)CC3)cc2)c1=O (some centres unmarked) [Compound 118]	5000 to 30000
CCC(C)n1ncn(-c2ccc(N3CCN(c4ccc(OC[C@@H]5CO[C@](Cc6ccnnc6)(c6ccc(S(C)(=O)=O)cc6)O5)cc4)CC3)cc2)c1=O (some centres unmarked) [Compound 119]	5000 to 30000
CCC(C)n1ncn(-c2ccc(N3CCN(c4ccc(OC[C@@H]5CO[C@](Cc6ccnnc6)(c6ccc(S(N)(=O)=O)cc6)O5)cc4)CC3)cc2)c1=O (some centres unmarked) [Compound 120]	> 30000
CCC(C)n1ncn(-c2ccc(N3CCN(c4ccc(OC[C@@H]5CO[C@](Cc6ccnnc6)(c6ccc(C(N)=O)cc6)O5)cc4)CC3)cc2)c1=O (stereo partly drawn) [Compound 121, 4-((2S,4R)-4-((4-(4-(4-(1-sec-butyl-5-oxo-1H-1,2,4-triazol-4(5H)-yl)phenyl)piperazin-1-yl)phenoxy)methyl)-2-(pyridazin-4-ylmethyl)-1,3-dioxolan-2-yl)benzamide]	5000 to 30000
CCC(C)n1ncn(-c2ccc(N3CCN(c4ccc(OC[C@@H]5CO[C@](Cc6ccnnc6)(c6cc(Cl)cc(Cl)c6)O5)cc4)CC3)cc2)c1=O (some centres unmarked) [Compound 122]	< 500
CCC(C)n1ncn(-c2ccc(N3CCN(c4ccc(OC[C@@H]5CO[C@@](Cc6ccnnc6)(c6ccc(Cl)cc6)O5)cc4)CC3)cc2)c1=O (some centres unmarked) [Compound 123]	< 500
CCC(C)n1ncn(-c2ccc(N3CCN(c4ccc(OC[C@@H]5CO[C@@](Cc6ccnnc6)(c6cccc(Cl)c6)O5)cc4)CC3)cc2)c1=O (some centres unmarked) [Compound 124]	< 500
CCC(C)n1ncn(-c2ccc(N3CCN(c4ccc(OC[C@@H]5CO[C@@](Cc6ccnnc6)(c6ccccc6Cl)O5)cc4)CC3)cc2)c1=O (some centres unmarked) [Compound 125]	< 500
CCC(C)n1ncn(-c2ccc(N3CCN(c4ccc(OC[C@@H]5CO[C@@](Cc6ccnnc6)(c6ccc(Cl)c(Cl)c6)O5)cc4)CC3)cc2)c1=O (some centres unmarked) [Compound 126]	< 500
CCC(C)n1ncn(-c2ccc(N3CCN(c4ccc(OC[C@@H]5CO[C@@](Cc6ccnnc6)(c6ccccc6OC)O5)cc4)CC3)cc2)c1=O (some centres unmarked) [Compound 127]	< 500
CCC(C)n1ncn(-c2ccc(N3CCN(c4ccc(OC[C@@H]5CO[C@@](Cc6ccnnc6)(c6cccc(OC)c6)O5)cc4)CC3)cc2)c1=O (some centres unmarked) [Compound 128]	500 to 5000
CCC(C)n1ncn(-c2ccc(N3CCN(c4ccc(OC[C@@H]5CO[C@@](Cc6ccnnc6)(c6ccc(OC)cc6)O5)cc4)CC3)cc2)c1=O (some centres unmarked) [Compound 129]	< 500
CCC(C)n1ncn(-c2ccc(N3CCN(c4ccc(OC[C@@H]5CO[C@@](Cc6ccnnc6)(c6cccc(C#N)c6)O5)cc4)CC3)cc2)c1=O (some centres unmarked) [Compound 130]	500 to 5000
CCC(C)n1ncn(-c2ccc(N3CCN(c4ccc(OC[C@@H]5CO[C@@](Cc6ccnnc6)(c6ccc(C#N)cc6)O5)cc4)CC3)cc2)c1=O (some centres unmarked) [Compound 131]	> 30000
CCC(C)n1ncn(-c2ccc(N3CCN(c4ccc(OC[C@@H]5CO[C@@](Cc6ccnnc6)(c6ccccc6C(F)(F)F)O5)cc4)CC3)cc2)c1=O (some centres unmarked) [Compound 132]	< 500
CCC(C)n1ncn(-c2ccc(N3CCN(c4ccc(OC[C@@H]5CO[C@@](Cc6ccnnc6)(c6cccc(C(F)(F)F)c6)O5)cc4)CC3)cc2)c1=O (some centres unmarked) [Compound 133]	< 500
CCC(C)n1ncn(-c2ccc(N3CCN(c4ccc(OC[C@@H]5CO[C@@](Cc6ccnnc6)(c6ccc(C(F)(F)F)cc6)O5)cc4)CC3)cc2)c1=O (some centres unmarked) [Compound 134]	< 500
CCC(C)n1ncn(-c2ccc(N3CCN(c4ccc(OC[C@@H]5CO[C@@](Cc6ccnnc6)(c6ccc(OC(F)(F)F)cc6)O5)cc4)CC3)cc2)c1=O (some centres unmarked) [Compound 135]	< 500
CCC(C)n1ncn(-c2ccc(N3CCN(c4ccc(OC[C@@H]5CO[C@@](Cc6ccnnc6)(c6ccccc6C)O5)cc4)CC3)cc2)c1=O (some centres unmarked) [Compound 136]	500 to 5000
CCC(C)n1ncn(-c2ccc(N3CCN(c4ccc(OC[C@@H]5CO[C@@](Cc6ccnnc6)(c6cccc(C)c6)O5)cc4)CC3)cc2)c1=O (some centres unmarked) [Compound 137]	< 500
CCC(C)n1ncn(-c2ccc(N3CCN(c4ccc(OC[C@@H]5CO[C@@](Cc6ccnnc6)(c6ccc(C)cc6)O5)cc4)CC3)cc2)c1=O (some centres unmarked) [Compound 138]	< 500
CCC(C)n1ncn(-c2ccc(N3CCN(c4ccc(OC[C@@H]5CO[C@@](Cc6ccnnc6)(c6cc(Cl)cc(Cl)c6)O5)cc4)CC3)cc2)c1=O (some centres unmarked) [Compound 139]	< 500
